Measured values reported in US20240352401A1, “FURFURAL-RESISTANT STRAIN AND METHOD FOR IMPROVING FURFURAL-RESISTANT OF STRAIN” (Korea Institute of Science and Technology, priority 2023, published 2024).

Key:
[1] = system: Yarrowia lipolytica strain; conditions: very low concentration (~0.5 g/L) of furfural; cited from earlier work
[2] = system: wild-type Yarrowia lipolytica strain (PO1f, ATCC MYA-2613); assay: Growth inhibition and glucose consumption of the parent strain according to furfural concentration (Reference Example 1); format: cell-based
Text: Confirmation of the degree of growth inhibition according to furfural in a parent strain Prior to the production of furfural-resistant strains, Yarrowia lipolytica PO1f strain having accession number ATCC MYA-2613, which are wild-type Yarrowia lipolytica, was selected as a parent strain, and the degree of growth inhibition and the degree of glucose consumption according to the concentration of furfural in the wild-type Yarrowia lipolytica strain, and the concentrations of furfural and furoic acid in the culture medium according to the cell culture time were confirmed.
Specifically, as the culture medium, a minimal medium (YSC medium (Yeast Synthetic Complete medium)) containing 6.7 g/L yeast nitrogen base (YNB), 20 g/L glucose as a carbon source and supplemented with complete supplement mixture (CSM) or CSM-Leu or CSM-Leu-Ura (MP Biomedicals, Solon, OH, USA) used. Furfural was added to the medium at concentrations of 0.1 g/L, 0.2 g/L, 0.3 g/L, 0.4 g/L or 0.5 g/L, respectively, and the growth rate was compared with that when furfural was not added. The culture was inoculated with the wild-type Yarrowia lipolytica strain with an initial OD600 value of 0.2 in 20 mL of the culture medium in a 100 mL Erlenmeyer flask, and then proceeded with shaking culture at 28° C. at 200 rpm. In this case, the wild-type strain is Yarrowia lipolytica PO1f strain with accession number ATCC MYA-2613. The “OD600” refers to the absorbance or optical density at a wavelength of 600 nm. It is possible to measure the density or concentration of microorganisms or cells in a sample by using the measured OD600.

[3] = furfural 0.1-0.5 g/L in YSC medium, 20 g/L glucose, 28° C., 200 rpm

For `O=Cc1ccco1` [furfural], the “cell growth of Yarrowia lipolytica strain” value [1] is listed as “significantly inhibited”, the “initial growth of the wild-type strain” value ([2]; 0.2 g/L or more of furfural) is listed as “growth was delayed” and the “growth of the wild-type strain” value ([2]; 0.5 g/L of furfural) is listed as “no growth was observed”. For the same compound, the “growth of the wild-type Yarrowia lipolytica strain as the furfural concentration increased” value [2, 3] was “clearly inhibited” and the “rate of glucose consumption as the furfural concentration increased” value [2, 3] was “reduced”.
